According to US7524849B2, “5-arylpyrimidines as anticancer agents” (Wyeth Holdings Corporation, priority 2003, dated 2009):
Like-named read-outs stand apart in the source and are kept apart here. Marks after values point to notes of the source that are not given here.

Experiments:
[1] = tested on: H157 Human Non-Small Cell Lung Carcinoma; conditions: for growth of xenografts: H157 NSCLC;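 for all read-outs here: subcutaneous flank tumors in female athymic nu/nu mice, staged near 100 mm^3 on day 0, tumor volume from caliper measurements, vehicle-dosed controls on the same schedule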
S1 cells = experiment: MTS cytotoxicity test with S1 cells; format: cell-based, human; conditions: mean of 2 experiments
Source text: (§1) Human cancer cell lines, unless otherwise noted, are obtained from the American Type Culture Collection (Rockville, Md.). The following drug-sensitive parental cell lines, and their derived drug-resistant counterparts, are obtained from the originators as listed: (a) S1 (parental line from a subclone of human colon carcinoma line LS174T) and derived S1-M1-3.2 (herein called S1-M1) which expresses the MXR drug transporter protein, are provided by Dr. L. Greenberger, Wyeth Research (Rabindran, S. K., He, H., Singh, M., Brown, E., Collins, K. I., Annable, T., and Greenberger, L. M. Reversal of a novel multidrug resistance mechanism in human colon carcinoma cells by fumitremorgin C. Cancer Res., 58: 5850-5858, 1998); (b) parental HL-60 human promyelocytic leukemia line and derived HL-60/ADR, which expresses the MRP1 drug transporter protein, are provided by Dr. M. Center, University of Kansas (McGrath, T., and Center, M. S. Adriamycin resistance in HL60 cells in the absence of detectable P-glycoprotein. Biochem. Biophys. […] J. Biol. Chem., 261: 7762-7770, 1986) via Dr. L. Greenberger, Wyeth Research.
(§2) The assay, which is sold in kit form by Promega (Madison, Wis.; CellTiter 96 AQueous Non-Radioactive Cell Proliferation Assay), is based on the conversion by viable cells, but not by dead cells, of the tetrazolium salt, MTS (3-(4,5-dimethylthiazol-2-yl)-5-(3-carboxymethoxyphenyl)-2-(4-sulphophenyl)-2H-tetrazolium, inner salt), into a water-soluble colored formazan which is detected by spectrophotometry. Compounds are tested at nine concentrations, in order to determine IC50 values. For the test procedure, cells are harvested by trypsinization, washed, counted and distributed to wells of 96-well flat-bottom microtiter plates at 1000 cells per well in 200 μL of medium. In addition, one row of wells on a separate plate receives cells as above (“time 0” plate). All plates are incubated at 37° in humidified 5% CO2 in air for about 24 hr.
(§3) On day 2, compounds for test are diluted and added to wells. Compounds are dissolved in DMSO at 10 mg/mL. For each compound, nine serial 2-fold dilutions are prepared in DMSO. Ten μL of each dilution in DMSO are transferred to 100 μL of medium, mixed well, and then 5 μL of this dilution are transferred in quadruplicate to wells containing cells. […] Plates are returned to the incubator for three days. At the time of drug addition to the experimental plates, the MTS assay is run on the “time 0” plate. This produces the “time 0 MTS value” which is related to the number of viable cells per well at the time of drug addition.
(§4) After three days of culture with test compounds (day 5 overall), the MTS assay is done on all wells of the experimental plates. The absorbance values of the quadruplicate sample wells are averaged and divided by the average of the “time 0” values. […] The nine values for each compound are plotted against concentration, and the concentration that produces a relative color yield half way between the maximum and minimum is taken as the IC50 value.
(§5) S1-M1 cells overexpress the MXR transporter which mediates resistance to some chemotherapeutics (Gottesman, M. M., Fojo, T., and Bates, S. E. Miltidrug resistance in cancer: role of ATP-dependent transporters. Nature Rev. Cancer, 2: 48-58, 2002). The IC50 values of representative examples of this invention, as well as reference compounds, on S1-M1 are compared to values on the sensitive parental S1 line.

KB-8-5 cells = experiment: MTS cytotoxicity test with KB-8-5 cells (moderate P-glycoprotein); format: cell-based, human; conditions: for Ratio 8.5/KB: IC50 on KB 8.5 cells/IC50 on KB cells; for IC50: KB 8.5 cells, mean of 2 experiments
Source text: as §1, §2, §3, §4

HL-60 cells = experiment: MTS cytotoxicity test with HL-60 cells; format: cell-based, human; conditions: mean of 2 experiments
Source text: as §1, §2, §3, §4
as §5, with “HL-60/ADR” for “S1-M1”, “multidrug resistance protein MRP1” for “MXR transporter”, “Multidrug” for “Miltidrug”, “HL-60” for “S1”

KB cells = experiment: MTS cytotoxicity test with KB cells; format: cell-based, human; conditions: mean of 2 experiments
Source text: as §1, §2, §3, §4

MAP-rich tubulin = experiment: Tubulin polymerization test with MAP-rich tubulin; format: biochemical, bovine; conditions: 0.3 μM compound, mean A340 at 20 min, fold enhancement over control
Description: Medium is RPMI-1640 with L-glutamine, supplemented with 10% heat-inactivated fetal calf serum, 100 units/mL penicillin, and 100 μg/mL streptomycin (Gibco, Grand Island, N.Y.). Microtubule-associated protein (MAP)-rich tubulin, containing about 70% tubulin and 30% MAPs (#ML113), and highly purified tubulin (>99% pure, #TL238), both from bovine brain, are obtained from Cytoskeleton, Inc., Denver, Colo. PEM buffer (80 mM piperazine-N,N′-bis[2-ethanesulfonic acid], pH 6.9, 1 mM ethylene glycol-bis(β-aminoethyl ether)-N,N,N′,N′-tetraacetic acid, 1 mM magnesium chloride) and guanosine 5′-triphosphate (GTP) are also obtained from Cytoskeleton. […] [^3H]vinblastine, specific activity 9.60 Ci/mmol and MicroSpin G-50 columns are obtained from Amersham Biosciences (Piscataway, N.J.). […] Other reagents are obtained from Sigma (St. Louis, Mo.).
MAP-rich tubulin is dissolved in ice-cold PEM buffer containing 1 mM GTP (GPEM buffer) at a concentration of 1.3 mg/mL. The solution is centrifuged at top speed in an Eppendorf model 5415C microcentrifuge (Brinkmann Instruments, Westbury, N.Y.) for 10 min at 4° immediately before use. The tubulin solution is added to wells of a ½-area 96-well plate (Costar No. 3696, Corning, Inc., Corning, N.Y.) already containing the compounds of interest. Each compound is tested in duplicate at a final concentration of 0.3 μM in a volume of 110 μL per well. The final DMSO concentration in all wells is 0.3%. Control reactions, which receive compound solvent only, are done in quadruplicate. The plate is put in a SpectraMax Plus plate reader (Molecular Devices Corp. Sunnyvale, Calif.) thermostated at 24° and the absorbance of each well at 340 nm, a measure of the appearance of turbidity due to tubulin polymer formation, is determined every minute for 60 minutes. The absorbance at time 0 for each well is subtracted from each of the subsequent absorbance readings for that well, and then the duplicates are averaged.

S1-M1 cells = experiment: MTS cytotoxicity test with S1-M1 cells (MXR); format: cell-based, human; conditions: for Ratio: IC50 on S1-M1 cells/IC50 on S1 cells; for IC50: S1-M1 cells, mean of 2 experiments
Source text: as §1, §2, §3, §4, §5

[2] = 1 mg/kg PO, schedule days 1, 7, H157
[3] = 5 mg/kg PO, schedule days 1, 7, H157
[4] = 5 mg/kg IV, schedule day 0, H157 (Table 11)
[5] = 5 mg/kg PO, schedule day 0, H157
[6] = 1.5 mg/kg IV, schedule days 0, 7, H157
[7] = 3 mg/kg IV, schedule days 0, 7, H157

How did the “T/C on day 0” value [1, 2] turn out when `CNCCCOc1cc(F)c(-c2c(Cl)nc(-c3cnccn3)nc2N[C@@H](C)C(F)(F)F)c(F)c1.Cl` [Example 24a, 6-Chloro-5-{2,6-difluoro-4-[3-(methylamino)propoxy]phenyl}-2-pyrazin-2-yl-N-[(1S)-2,2,2-trifluoro-1-methylethyl]pyrimidin-4-amine hygrogen chloride] was run?
Its value is 0.96.

And the “T/C on day 4” value [1, 2]?
The value was 0.73*.

What about the “T/C on day 7” value [1, 2] of the same compound?
Its value is 0.70.

What about the “T/C on day 10” value [1, 2] of the same compound?
Its value is 0.58.

What about the “T/C on day 13” value [1, 2] of the same compound?
The value was 0.50*.

What about the “T/C on day 0” value [1, 3] of the same compound?
The value was 0.98.

What about the “T/C on day 4” value [1, 3] of the same compound?
Its value is 0.64**.

And the “T/C on day 7” value [1, 3]?
The value was 0.51**.

What about the “T/C on day 10” value [1, 3] of the same compound?
Its value is 0.16**.

What about the “T/C on day 13” value [1, 3] of the same compound?
The value was 0.12**.

What about the growth of xenografts ([1]; orally on days 1 and 7 with 5 or 1 mg/kg/dose) of the same compound?
The growth of xenografts was “inhibits the growth”.

And the IC50 (S1 cells)?
The IC50 was 20 nM.

What about the “Ratio 8.5/KB” value (KB-8-5 cells) of the same compound?
Its value is 3.5.

And the IC50 (KB-8-5 cells)?
The IC50 was 24 nM.

And the IC50 (HL-60 cells)?
The IC50 was 6.6 nM.

What about the IC50 (KB cells) of the same compound?
The IC50 was 7 nM.

And the “A340 Compound / A340 Control” value (MAP-rich tubulin)?
The value was 2.3.

What about the Ratio (S1-M1 cells) of the same compound?
The Ratio was 2.7.

And the IC50 (S1-M1 cells)?
The IC50 was 53 nM.

With `CNCCCOc1cc(F)c(-c2c(Cl)nc(-c3ccccn3)nc2N[C@@H](C)C(F)(F)F)c(F)c1.Cl` [Example 29a, 6-Chloro-5-{2,6-difluoro-4-[3-(methylamino)propoxy]phenyl}-2-pyridin-2-yl-N-[(S)-2,2,2-trifluoro-1-methylethyl]pyrimidin-4-amine hydrogen chloride] as the compound, how does the “T/C on day 0” value [1, 4] read?
Its value is 1.03.

And the “T/C on day 2” value [1, 4]?
Its value is 0.34**.

And the “T/C on day 7” value [1, 4]?
The value was “Toxic”.

And the “T/C on day 0” value [1, 5]?
Its value is 1.02.

What about the “T/C on day 2” value [1, 5] of the same compound?
The value was 0.43**.

And the “T/C on day 7” value [1, 5]?
The value was 0.37**.

And the “T/C on day 9” value [1, 5]?
Its value is 0.33**.

And the “T/C on day 14” value [1, 5]?
The value was 0.25**.

What about the growth of xenografts ([1]; orally on day 0 with 5 mg/kg) of the same compound?
The growth of xenografts was “inhibits the growth”.

What about the IC50 (S1 cells; Homo sapiens) of the same compound?
The IC50 was 7.9 nM.

And the IC50 (KB-8-5 cells; Homo sapiens)?
Its IC50 is 21 nM.

And the “Ratio 8.5/KB” value (KB-8-5 cells)?
Its value is 3.4.

What about the IC50 (HL-60 cells; Homo sapiens) of the same compound?
Its IC50 is 6.9 nM.

What about the IC50 (KB cells; Homo sapiens) of the same compound?
Its IC50 is 6.2 nM.

What about the “A340 Compound / A340 Control” value (MAP-rich tubulin) of the same compound?
The value was 2.4.

What about the IC50 (S1-M1 cells; Homo sapiens) of the same compound?
The IC50 was 21 nM.

What about the Ratio (S1-M1 cells) of the same compound?
The Ratio was 2.7.

`CNCCCOc1cc(F)c(-c2c(Cl)nc(-n3cccn3)nc2N[C@@H](C)C(F)(F)F)c(F)c1.Cl` [Example 32a, 6-Chloro-5-{2,6-difluoro-4-[3-(methylamino)propoxy]phenyl}-2-(1H-pyrazol-1-yl)-N-[(1S)-2,2,2-trifluoro-1-methylethyl)pyrimidin-4-amine Hydrogen Chloride] was tested. Which “T/C on day 0” value [1, 6] did it give?
The value was 0.95.

What about the “T/C on day 4” value [1, 6] of the same compound?
The value was 0.89.

And the “T/C on day 7” value [1, 6]?
Its value is 0.63*.

And the “T/C on day 13” value [1, 6]?
Its value is 0.48*.

And the “T/C on day 0” value [1, 7]?
Its value is 0.95.

And the “T/C on day 4” value [1, 7]?
Its value is 0.72.

What about the “T/C on day 7” value [1, 7] of the same compound?
The value was 0.46**.

What about the “T/C on day 13” value [1, 7] of the same compound?
Its value is 0.10**.

What about the growth of xenografts ([1]; intravenously on days 0 and 7 at 3 or 1.5 mg/kg/dose) of the same compound?
Its growth of xenografts is “inhibits the growth”.

What about the IC50 (S1 cells; Homo sapiens) of the same compound?
The IC50 was 9.9 nM.

What about the IC50 (KB-8-5 cells; Homo sapiens) of the same compound?
Its IC50 is 32 nM.

What about the “Ratio 8.5/KB” value (KB-8-5 cells) of the same compound?
The value was 14.

And the IC50 (HL-60 cells; Homo sapiens)?
Its IC50 is 2.6 nM.

What about the IC50 (KB cells; Homo sapiens) of the same compound?
The IC50 was 2.4 nM.

And the “A340 Compound / A340 Control” value (MAP-rich tubulin)?
The value was 2.3.

What about the IC50 (S1-M1 cells; Homo sapiens) of the same compound?
The IC50 was 8.7 nM.

And the Ratio (S1-M1 cells)?
Its Ratio is 0.9.

`CC(=O)O[C@H]1C(=O)[C@@]2(C)[C@H]([C@H](OC(=O)c3ccccc3)[C@]3(O)C[C@H](OC(=O)[C@H](O)[C@@H](NC(=O)c4ccccc4)c4ccccc4)C(C)=C1C3(C)C)[C@]1(OC(C)=O)CO[C@@H]1C[C@@H]2O` [Paclitaxel, reference compound] was tested. Which IC50 (S1 cells; Homo sapiens) did it give?
Its IC50 is 4.2 nM.

What about the IC50 (HL-60 cells; Homo sapiens) of the same compound?
Its IC50 is 3 nM.

And the “A340 Compound / A340 Control” value (MAP-rich tubulin)?
Its value is 2.4.

What about the IC50 (S1-M1 cells; Homo sapiens) of the same compound?
Its IC50 is 2.7 nM.

Which results are given for `CC[C@]1(O)C[C@H]2CN(CCc3c([nH]c4ccccc34)[C@@](C(=O)OC)(c3cc4c(cc3OC)N(C=O)[C@H]3[C@@](O)(C(=O)OC)[C@H](OC(C)=O)[C@]5(CC)C=CCN6CC[C@]43[C@@H]65)C2)C1` [Vincristine, reference compound]?
IC50 (S1 cells; Homo sapiens): 14 nM; IC50 (KB-8-5 cells; Homo sapiens): 58 nM; Ratio 8.5/KB (KB-8-5 cells): 26; IC50 (HL-60 cells; Homo sapiens): 2.5 nM; IC50 (KB cells; Homo sapiens): 2.2 nM; A340 Compound / A340 Control (MAP-rich tubulin): 0.2; IC50 (S1-M1 cells; Homo sapiens): 7.9 nM; Ratio (S1-M1 cells): 0.6
